The first experiment deals with T1, Recombinant human TPH1 (MBP tagged) (Homo sapiens, UniProt P17752).
T1 construct: cloning full length human TPH1 cDNA in to a bacterial pMAL-c5E expression vector; made in house; host or cells: E. coli BL21 (DE3)
T1 sequence (P17752 1-444): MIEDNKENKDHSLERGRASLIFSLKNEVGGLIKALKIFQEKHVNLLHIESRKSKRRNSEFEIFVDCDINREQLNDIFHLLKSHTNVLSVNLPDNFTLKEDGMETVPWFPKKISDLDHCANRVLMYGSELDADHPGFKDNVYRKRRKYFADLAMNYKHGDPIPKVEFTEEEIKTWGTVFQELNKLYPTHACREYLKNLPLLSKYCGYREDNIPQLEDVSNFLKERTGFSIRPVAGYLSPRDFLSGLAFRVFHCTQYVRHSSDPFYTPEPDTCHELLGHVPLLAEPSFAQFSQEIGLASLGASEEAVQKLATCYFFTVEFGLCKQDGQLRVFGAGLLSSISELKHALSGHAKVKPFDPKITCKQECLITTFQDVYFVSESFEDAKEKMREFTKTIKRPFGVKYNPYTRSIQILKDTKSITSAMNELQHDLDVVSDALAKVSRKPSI
The experiment can be described thus: TPH1 in vitro inhibition assay (kinetic fluorescence). In kind it is biochemical. The settings on record: TPH1 Range (TPH1 inhibition IC50). Summed up:
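Final mix: 15 nM MBP-TPH1, 30 μM Trp, 36 μM 6-methyltetrahydropterin, 25 μM ferrous ammonium sulfate, 50 mM MES pH 7.1, 1% DMSO, room temperature.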
For `CN(C)S(=O)(=O)c1cccc(-c2cc(Cl)ccc2[C@@H](Oc2cc(N3CCC4(CC3)CN[C@H](C(=O)O)C4)nc(N)n2)C(F)(F)F)c1` [Example 34cl, (S)-8-(2-amino-6-((R)-1-(5-chloro-3′-(N,N-dimethylsulfamoyl)-[1,1′-biphenyl]-2-yl)-2,2,2-trifluoroethoxy)pyrimidin-4-yl)-2,8-diazaspiro[4.5]decane-3-carboxylic acid], the IC50 was in the range of 50 to 300 nM.
On the same count and under the same terms, as for `Cc1cccc(-c2cc(Cl)ccc2[C@@H](Oc2cc(N3CCC4(CC3)CN[C@H](C(=O)O)C4)nc(N)n2)C(F)(F)F)n1` [Example 34i, (S)-8-(2-amino-6-((R)-1-(4-chloro-2-(6-methylpyridin-2-yl)phenyl)-2,2,2-trifluoroethoxy)pyrimidin-4-yl)-2,8-diazaspiro[4.5]decane-3-carboxylic acid], the figure is 50 to 300 nM.

The same experiment, now with this note: read-out: TPH1 Range (TPH1 inhibition IC50).
As for `CNC(=O)c1cccc(-c2cc(Cl)ccc2[C@@H](Oc2cc(N3CCC4(CC3)CN[C@H](C(=O)O)C4)nc(N)n2)C(F)(F)F)c1` [Example 34cm, (S)-8-(2-amino-6-((R)-1-(5-chloro-3′-(methylcarbamoyl)-[1,1′-biphenyl]-2-yl)-2,2,2-trifluoroethoxy)pyrimidin-4-yl)-2,8-diazaspiro[4.5]decane-3-carboxylic acid], the IC50 is 50 to 300 nM.
The same measure, in the same setting: for `CN(C)C(=O)c1cccc(-c2cc(Cl)ccc2[C@@H](Oc2cc(N3CCC4(CC3)CN[C@H](C(=O)O)C4)nc(N)n2)C(F)(F)F)c1` [Example 34cn, (S)-8-(2-amino-6-((R)-1-(5-chloro-3′-(dimethylcarbamoyl)-[1,1′-biphenyl]-2-yl)-2,2,2-trifluoroethoxy)pyrimidin-4-yl)-2,8-diazaspiro[4.5]decane-3-carboxylic acid] the value was 50 to 300 nM; for `CCN(CC)C(=O)c1cccc(-c2cc(Cl)ccc2[C@@H](Oc2cc(N3CCC4(CC3)CN[C@H](C(=O)O)C4)nc(N)n2)C(F)(F)F)c1` [Example 34co, (S)-8-(2-amino-6-((R)-1-(5-chloro-3′-(diethylcarbamoyl)-[1,1′-biphenyl]-2-yl)-2,2,2-trifluoroethoxy)pyrimidin-4-yl)-2,8-diazaspiro[4.5]decane-3-carboxylic acid], 50 to 300 nM.
Same read-out and setting: for `Nc1nc(O[C@H](c2ccc(Cl)cc2-c2cccc3[nH]cnc23)C(F)(F)F)cc(N2CCC3(CC2)CN[C@H](C(=O)O)C3)n1` [Example 34cp, (S)-8-(6-((R)-1-(2-(1H-benzo[d]imidazol-4-yl)-4-chlorophenyl)-2,2,2-trifluoroethoxy)-2-aminopyrimidin-4-yl)-2,8-diazaspiro[4.5]decane-3-carboxylic acid] the value was 50 to 300 nM; for `Nc1nc(O[C@H](c2ccc(Cl)cc2-c2cccc(C(=O)N3CCNCC3)c2)C(F)(F)F)cc(N2CCC3(CC2)CN[C@H](C(=O)O)C3)n1` [Example 34cq, (S)-8-(2-amino-6-((R)-1-(5-chloro-3′-(piperazine-1-carbonyl)-[1,1′-biphenyl]-2-yl)-2,2,2-trifluoroethoxy)pyrimidin-4-yl)-2,8-diazaspiro[4.5]decane-3-carboxylic acid], under 50 nM; for `Nc1nc(O[C@H](c2ccc(Cl)cc2-c2cccc(C(=O)N3CCN(C4CC4)CC3)c2)C(F)(F)F)cc(N2CCC3(CC2)CN[C@H](C(=O)O)C3)n1` [Example 34cr, (S)-8-(2-amino-6-((R)-1-(5-chloro-3′-(4-cyclopropylpiperazine-1-carbonyl)-[1,1′-biphenyl]-2-yl)-2,2,2-trifluoroethoxy)pyrimidin-4-yl)-2,8-diazaspiro[4.5]decane-3-carboxylic acid], 50 to 300 nM.
On the same count and under the same terms, as for `Nc1nc(O[C@H](c2ccc(Cl)cc2-c2ccccn2)C(F)(F)F)cc(N2CCC3(CC2)CN[C@H](C(=O)O)C3)n1` [Example 34cs, (S)-8-(2-amino-6-((R)-1-(4-chloro-2-(pyridin-2-yl)phenyl)-2,2,2-trifluoroethoxy)pyrimidin-4-yl)-2,8-diazaspiro[4.5]decane-3-carboxylic acid], the figure is 50 to 300 nM; as for `Nc1nc(O[C@H](c2ccc(Cl)cc2-c2ncccn2)C(F)(F)F)cc(N2CCC3(CC2)CN[C@H](C(=O)O)C3)n1` [Example 34ct, (S)-8-(2-amino-6-((R)-1-(4-chloro-2-(pyrimidin-2-yl)phenyl)-2,2,2-trifluoroethoxy)pyrimidin-4-yl)-2,8-diazaspiro[4.5]decane-3-carboxylic acid], under 50 nM.
Turning to `Nc1nc(O[C@H](c2ccc(Cl)cc2-c2cnccn2)C(F)(F)F)cc(N2CCC3(CC2)CN[C@H](C(=O)O)C3)n1` [Example 34cu, (S)-8-(2-amino-6-((R)-1-(4-chloro-2-(pyrazin-2-yl)phenyl)-2,2,2-trifluoroethoxy)pyrimidin-4-yl)-2,8-diazaspiro[4.5]decane-3-carboxylic acid], the IC50 was under 50 nM.
Same read-out and setting: as for `COCCOc1cccc(-c2cc(Cl)ccc2[C@@H](Oc2cc(N3CCC4(CC3)CN[C@H](C(=O)O)C4)nc(N)n2)C(F)(F)F)c1` [Example 34cv, (S)-8-(2-amino-6-((R)-1-(5-chloro-3′-(2-methoxyethoxy)-[1,1′-biphenyl]-2-yl)-2,2,2-trifluoroethoxy)pyrimidin-4-yl)-2,8-diazaspiro[4.5]decane-3-carboxylic acid], the figure is under 50 nM.
Turning to `Nc1nc(O[C@H](c2ccc(Cl)cc2-c2ccccc2N)C(F)(F)F)cc(N2CCC3(CC2)CNC(C(=O)O)C3)n1` (stereo partly drawn) [Example 34d, 8-(2-amino-6-((R)-1-(2′-amino-5-chloro-[1,1′-biphenyl]-2-yl)-2,2,2-trifluoroethoxy)pyrimidin-4-yl)-2,8-diazaspiro[4.5]decane-3-carboxylic acid], the IC50 is 50 to 300 nM.
The same measure, in the same setting: for `Nc1nc(O[C@H](c2ccc(Cl)cc2-c2cccc([N+](=O)[O-])c2)C(F)(F)F)cc(N2CCC3(CC2)CNC(C(=O)O)C3)n1` (stereo partly drawn) [Example 34e, 8-(2-amino-6-((R)-1-(5-chloro-3′-nitro-[1,1′-biphenyl]-2-yl)-2,2,2-trifluoroethoxy)pyrimidin-4-yl)-2,8-diazaspiro[4.5]decane-3-carboxylic acid] the value was 50 to 300 nM.
Same read-out and setting: as for `Nc1cccc(-c2cc(Cl)ccc2[C@@H](Oc2cc(N3CCC4(CC3)CNC(C(=O)O)C4)nc(N)n2)C(F)(F)F)c1` (stereo partly drawn) [Example 34f, 8-(2-amino-6-((R)-1-(3′-amino-5-chloro-[1,1′-biphenyl]-2-yl)-2,2,2-trifluoroethoxy)pyrimidin-4-yl)-2,8-diazaspiro[4.5]decane-3-carboxylic acid], the figure is 50 to 300 nM; as for `Nc1nc(O[C@H](c2ccc(Cl)cc2-c2ccc([N+](=O)[O-])cc2)C(F)(F)F)cc(N2CCC3(CC2)CNC(C(=O)O)C3)n1` (stereo partly drawn) [Example 34g, 8-(2-amino-6-((R)-1-(5-chloro-4′-nitro-[1,1′-biphenyl]-2-yl)-2,2,2-trifluoroethoxy)pyrimidin-4-yl)-2,8-diazaspiro[4.5]decane-3-carboxylic acid], 50 to 300 nM.
Still for that read-out and setting: for `Nc1ccc(-c2cc(Cl)ccc2[C@@H](Oc2cc(N3CCC4(CC3)CNC(C(=O)O)C4)nc(N)n2)C(F)(F)F)cc1` (stereo partly drawn) [Example 34h, 8-(2-amino-6-((R)-1-(4′-amino-5-chloro-[1,1′-biphenyl]-2-yl)-2,2,2-trifluoroethoxy)pyrimidin-4-yl)-2,8-diazaspiro[4.5]decane-3-carboxylic acid] the value was 300 to 3000 nM.
